According to patent US12552771B2, “Carboxylic acid containing azetidinyl compounds for the treatment of neurodegenerative diseases” (Celgene Corporation, priority 2021, dated 2026):
Structures can show the parent of a compound that is named as a salt.

Molecular target: T1, S1P5 receptors (Homo sapiens, UniProt Q9H228)
T1 construct: expressed in transfected cells; host or cells: CHO cells (membranes)
Test: [35S]-GTPγS binding assay with CHO-S1P5 receptor membranes
Type: biochemical
Details: membranes of CHO cells expressing recombinant S1P5 receptors; measure of S1P5 agonism
Experimental: CHO cells expressing recombinant S1P5 receptors were cultured in 500 cm^2 culture trays and, once confluent, rinsed and detached with cell-lifting buffer (10 mM HEPES, 154 mM NaCl, 6.85 mM EDTA, pH 7.4). Cells were then pelleted by centrifugation, resuspended, and homogenized in membrane preparation buffer (10 mM HEPES and 10 mM EDTA, pH 7.4) using a Polytron PT 1200E homogenizer (Kinematica, Luzern, Switzerland). Cellular proteins were pelleted by centrifugation at 48,000×g at 4° C. for 30 minutes. The resulting supernatant was discarded, and the pellet was re-suspended again in membrane preparation buffer, homogenized for a second time, and then centrifuged again as described above. The final cellular protein pellet was suspended in ice cold resuspension buffer (10 mM HEPES and 0.1 mM EDTA, pH 7.4), divided into aliquots, and stored at −80° C. until use.
Functional binding assays for [^35]-GTPγS were performed in 96-well non-binding surface plates with a final volume of 200 μL. The test compounds were serially diluted in DMSO and added to assay plates using a Tecan D300E digital printer with a total volume of […]. The control sphingosine-1-phosphate (SiP) was prepared separately by preparing a 400 μM stock solution from a 100 nmol pellet of SiP in 10 mM Na2CO3 with 2% […]. The serial dilution of SiP was done using complete assay buffer (20 mM HEPES, 10 mM MgCl2, 100 mM NaCl, 1 mM EDTA, 0.1% fatty acid free bovine serum albumin (BSA), and 30 μg/mL saponin, pH 7.4) and transferred to wells already containing 0.4 μL DMSO. All the wells were then loaded to a total volume of 40 μL of complete assay buffer, except the non-specific binding (NSB) wells. For NSB wells, 40 μL/well of 50 μM GTPγS (Sigma Aldrich, cat #G8634, St. Louis, MO) was added to wells containing 0.4 μL of DMSO. The assay was started by the addition of 120 μL/well of CHO-S1P receptor membrane solution containing 40 μg/mL of membrane protein, 16.67 μM guanosine diphosphate (GDP; Sigma Aldrich, cat #G7127, St. Louis, MO), and 2.5 mg/mL of WGA PVT SPA beads in complete buffer. Assay plates were then sealed and incubated at room temperature with gentle agitation for 30 minutes. Next, 40 μL/well of 1 nM of [^35]-GTPγS (PerkinElmer, cat #NEG030X250UC, Waltham, MA) in basic assay buffer (20 mM HEPES, 10 mM MgCl2, 100 mM NaCl, and 1 mM EDTA, pH7.4) was added to the assay plates to yield a final concentration of 200 pM and the plates were further incubated for 40 minutes at room temperature with gentle agitation. The assay was terminated by centrifugation of the plates at 1000 rpm for 3 minutes using an Eppendorf 5810R centrifuge (Eppendorf, Hamburg, Germany) and G protein bound radioactivity was quantitated using a MicroBeta2 microplate scintillation counter (PerkinElmer, Waltham, MA). As G protein bound radioactivity directly correlates to receptor activation and coupling to the G protein, this assay is a measure of S1P5 agonism.

T1 sequence (Q9H228 whole entry): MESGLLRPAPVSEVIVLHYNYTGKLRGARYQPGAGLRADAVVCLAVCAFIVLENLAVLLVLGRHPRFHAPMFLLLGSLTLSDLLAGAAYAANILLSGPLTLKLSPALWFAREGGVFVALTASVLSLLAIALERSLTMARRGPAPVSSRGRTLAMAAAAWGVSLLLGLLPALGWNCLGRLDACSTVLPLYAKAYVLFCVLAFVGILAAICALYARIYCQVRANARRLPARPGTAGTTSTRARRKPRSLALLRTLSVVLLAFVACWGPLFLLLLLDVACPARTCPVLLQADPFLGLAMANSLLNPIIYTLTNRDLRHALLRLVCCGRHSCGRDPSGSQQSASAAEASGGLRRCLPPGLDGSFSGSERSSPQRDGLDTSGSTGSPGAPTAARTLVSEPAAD

SMILES	EC50
Cc1cc(C2CN(c3ccc(C4CC4)cc3)C2)cc(C)c1CN1CCC(C(=O)O)CC1 [Compound 48, 1-(4-(1-(4-cyclopropylphenyl)azetidin-3-yl)-2,6-dimethylbenzyl)piperidine-4-carboxylic acid]	1 to 10 µM
Cc1cc(C2CN(c3c(C)cccc3C(F)(F)F)C2)cc(C)c1CN1CCC(C(=O)O)CC1 [Compound 73, 1-(2,6-dimethyl-4-(1-(2-methyl-6-(trifluoromethyl)phenyl)azetidin-3-yl)-benzyl)piperidine-4-carboxylic acid]	≤ 0.01 µM
CC(C)c1cc(C2CN(c3c(Cl)cccc3Cl)C2)cc(C(C)C)c1CN1CCC(C(=O)O)CC1 [Compound 53, 1-(4-(1-(2,6-dichlorophenyl)azetidin-3-yl)-2,6-diisopropylbenzyl)piperidine-4-carboxylic acid]	0.1 to 1 µM
O=C(O)C1CCN(Cc2ccc(C3CN(c4cccc(F)c4)C3)cc2)CC1 [Compound 41, 1-(4-(1-(3-fluorophenyl)azetidin-3-yl)benzyl)piperidine-4-carboxylic acid]	1 to 10 µM
O=C(O)C1CCN(C2CCc3cc(C4CN(c5c(F)cccc5F)C4)ccc32)CC1 (single isomer, unassigned) [Compound 2a, 1-(5-(1-(2,6-difluorophenyl)azetidin-3-yl)-2,3-dihydro-1H-inden-1-yl)-piperidine-4-carboxylic acid]	0.01 to 0.1 µM
O=C(O)C1CCN(Cc2ccc(C3CN(c4c(F)cccc4F)C3)cc2)CC1 [Compound 14, 1-(4-(1-(2,6-difluorophenyl)azetidin-3-yl)benzyl)piperidine-4-carboxylic acid]	0.1 to 1 µM
Cc1cc(C2CN(c3cccc4ccccc34)C2)cc(C)c1CN1CCC(C(=O)O)CC1 [Compound 75, 1-(2,6-dimethyl-4-(1-(naphthalen-1-yl)azetidin-3-yl)benzyl)piperidine-4-carboxylic acid]	0.1 to 1 µM
Cc1cc(C2CN(c3c(F)cccc3F)C2)cc(C)c1CN1CCC(C(=O)O)CC1 [Compound 44, 1-(4-(1-(2,6-difluorophenyl)azetidin-3-yl)-2,6-dimethylbenzyl)piperidine-4-carboxylic acid]	0.01 to 0.1 µM
Cc1cc(C2CN(c3ccc(C4CC4)c(Cl)c3)C2)cc(C)c1CN1CCC(C(=O)O)CC1 [Compound 49, 1-(4-(1-(3-chloro-4-cyclopropylphenyl)azetidin-3-yl)-2,6-dimethylbenzyl)-piperidine-4-carboxylic acid]	0.1 to 1 µM
O=C(O)C1CN(C2CCc3cc(C4CN(c5cccc(F)c5)C4)ccc32)C1 (single isomer, unassigned) [Compound 8b, 1-(5-(1-(3-fluorophenyl)azetidin-3-yl)-2,3-dihydro-1H-inden-1-yl)azetidine-3-carboxylic acid]	0.1 to 1 µM
O=C(O)C1CCN(C2CCc3cc(C4CN(c5cccc(F)c5)C4)ccc32)CC1 (single isomer, unassigned) [Compound 3a, 1-(5-(1-(3-fluorophenyl)azetidin-3-yl)-2,3-dihydro-1H-inden-1-yl)piperidine-4-carboxylic acid]	0.1 to 1 µM
O=C(O)C1CCN(C2CCc3cc(N4CC(c5c(F)cccc5F)C4)ccc32)CC1 (single isomer, unassigned) [Compound 9a, 1-(5-(3-(2,6-difluorophenyl)azetidin-1-yl)-2,3-dihydro-1H-inden-1-yl)piperidine-4-carboxylic acid]	≤ 0.01 µM
CCc1cccc(CC)c1N1CC(c2cc(C)c(CN3CCC(C(=O)O)CC3)c(C)c2)C1 [Compound 69, 1-(4-(1-(2,6-diethylphenyl)azetidin-3-yl)-2,6-dimethylbenzyl)piperidine-4-carboxylic acid]	≤ 0.01 µM
CC1(C(=O)O)CCN(Cc2ccc(C3CN(c4c(Cl)cccc4Cl)C3)cc2)CC1 [Compound 89, 1-(4-(1-(2,6-dichlorophenyl)azetidin-3-yl)benzyl)-4-methylpiperidine-4-carboxylic acid, formic acid salt]	0.01 to 0.1 µM
Cc1cc(C2CN(c3c(Cl)cccc3Cl)C2)cc(C)c1CN1CC(C(=O)O)C1 [Compound 59, 1-(4-(1-(2,6-dichlorophenyl)azetidin-3-yl)-2,6-dimethylbenzyl)azetidine-3-carboxylic acid]	≤ 0.01 µM
O=C(O)C1CCN(C2CCc3cc(C4CN(c5ccccc5F)C4)ccc32)CC1 (single isomer, unassigned) [Compound 4b, 1-(5-(1-(2-fluorophenyl)azetidin-3-yl)-2,3-dihydro-1H-inden-1-yl)piperidine-4-carboxylic acid]	1 to 10 µM
O=C(O)C1CCN(Cc2ccc(N3CC(c4c(Cl)cccc4Cl)C3)cc2)CC1 [Compound 24, 1-(4-(3-(2,6-dichlorophenyl)azetidin-1-yl)benzyl)piperidine-4-carboxylic acid]	0.01 to 0.1 µM
O=C(O)C1CCN(Cc2ccc(N3CC(c4c(Cl)cccc4Cl)C3)nc2)CC1 [Compound 32, 1-((6-(3-(2,6-dichlorophenyl)azetidin-1-yl)pyridin-3-yl)methyl)piperidine-4-carboxylic acid]	0.01 to 0.1 µM
O=C(O)C1CCN(C2CCc3cc(N4CC(c5c(F)cccc5F)C4)ccc32)CC1 (single isomer, unassigned) [Compound 9b, 1-(5-(3-(2,6-difluorophenyl)azetidin-1-yl)-2,3-dihydro-1H-inden-1-yl)piperidine-4-carboxylic acid]	0.1 to 1 µM
Cc1cc(C2CN(c3c(Cl)cccc3Cl)C2)cc(C)c1CN1CCC(C(=O)O)C(C)C1 (centres unmarked) [Compound 61, 1-(4-(1-(2,6-dichlorophenyl)azetidin-3-yl)-2,6-dimethylbenzyl)-3-methyl-piperidine-4-carboxylic acid]	≤ 0.01 µM

More lines, now with the values ahead:

EC50	SMILES
0.01 to 0.1 µM	O=C(O)C1CCN(Cc2ccc(C3CN(c4c(Cl)cccc4Cl)C3)nc2)CC1 [Compound 21, 1-((6-(1-(2,6-dichlorophenyl)azetidin-3-yl)pyridin-3-yl)methyl)piperidine-4-carboxylic acid]
≤ 0.01 µM	O=C(O)C1CCN(Cc2ccc(C3CN(c4c(Cl)cccc4Cl)C3)c3ccccc23)CC1 [Compound 54, 1-((4-(1-(2,6-dichlorophenyl)azetidin-3-yl)naphthalen-1-yl)methyl)-piperidine-4-carboxylic acid]
0.01 to 0.1 µM	Cc1cc(CN2CCC(C(=O)O)CC2)nc(C)c1C1CN(c2c(Cl)cccc2Cl)C1 [Compound 84, 1-((5-(1-(2,6-dichlorophenyl)azetidin-3-yl)-4,6-dimethyl-pyridin-2-yl)methyl)piperidine-4-carboxylic acid]
0.01 to 0.1 µM	CC(C)(c1ccc(C2CN(c3c(Cl)cccc3Cl)C2)nc1)N1CCC(C(=O)O)CC1 [Compound 87, 1-(2-(6-(1-(2,6-dichlorophenyl)azetidin-3-yl)pyridin-3-yl)propan-2-yl)-piperidine-4-carboxylic acid]
0.1 to 1 µM	Cc1cc(C2CN(c3c(Cl)cccc3Cl)C2)ncc1CN1CCC(C(=O)O)CC1 [Compound 78, 1-((6-(1-(2,6-dichlorophenyl)azetidin-3-yl)-4-methylpyridin-3-yl)methyl)-piperidine-4-carboxylic acid]
0.01 to 0.1 µM	Cc1cc(C2CN(c3c(Cl)cccc3Cl)C2)cnc1CN1CCC(C(=O)O)CC1 [Compound 76, 1-((5-(1-(2,6-dichlorophenyl)azetidin-3-yl)-3-methylpyridin-2-yl)methyl)-piperidine-4-carboxylic acid]
≤ 0.01 µM	CCc1cc(C2CN(c3c(Cl)cccc3Cl)C2)cc(C)c1CN1CCC(C(=O)O)CC1 [Compound 55, 1-(4-(1-(2,6-dichlorophenyl)azetidin-3-yl)-2-ethyl-6-methylbenzyl)-piperidine-4-carboxylic acid]
0.01 to 0.1 µM	Cc1cc(C2CN(c3c(Cl)cccc3Cl)C2)cc(C#N)c1CN1CCC(C(=O)O)CC1 [Compound 58, 1-(2-cyano-4-(1-(2,6-dichlorophenyl)azetidin-3-yl)-6-methylbenzyl)-piperidine-4-carboxylic acid]
0.1 to 1 µM	Cc1cc(C2CN(c3c(Cl)cccc3Cl)C2)c(C)nc1CN1CCC(C(=O)O)CC1 [Compound 82, 1-((5-(1-(2,6-dichlorophenyl)azetidin-3-yl)-3,6-dimethylpyridin-2-yl)-methyl)piperidine-4-carboxylic acid]
